Key:
human TLR8 (hTLR8) = biological target: T1, human TLR8 (hTLR8) (Homo sapiens, UniProt Q9NR97); assay: Human TLR8 agonist activity assay (measured in a similar manner); assay type: cell-based; conditions: HEK-Blue TLR cells, SEAP reporter, measured in a similar manner to TLR7; some values average of multiple measurements
T1 construct: expressed in transfected cells
T1 sequence (Q9NR97 27-1041): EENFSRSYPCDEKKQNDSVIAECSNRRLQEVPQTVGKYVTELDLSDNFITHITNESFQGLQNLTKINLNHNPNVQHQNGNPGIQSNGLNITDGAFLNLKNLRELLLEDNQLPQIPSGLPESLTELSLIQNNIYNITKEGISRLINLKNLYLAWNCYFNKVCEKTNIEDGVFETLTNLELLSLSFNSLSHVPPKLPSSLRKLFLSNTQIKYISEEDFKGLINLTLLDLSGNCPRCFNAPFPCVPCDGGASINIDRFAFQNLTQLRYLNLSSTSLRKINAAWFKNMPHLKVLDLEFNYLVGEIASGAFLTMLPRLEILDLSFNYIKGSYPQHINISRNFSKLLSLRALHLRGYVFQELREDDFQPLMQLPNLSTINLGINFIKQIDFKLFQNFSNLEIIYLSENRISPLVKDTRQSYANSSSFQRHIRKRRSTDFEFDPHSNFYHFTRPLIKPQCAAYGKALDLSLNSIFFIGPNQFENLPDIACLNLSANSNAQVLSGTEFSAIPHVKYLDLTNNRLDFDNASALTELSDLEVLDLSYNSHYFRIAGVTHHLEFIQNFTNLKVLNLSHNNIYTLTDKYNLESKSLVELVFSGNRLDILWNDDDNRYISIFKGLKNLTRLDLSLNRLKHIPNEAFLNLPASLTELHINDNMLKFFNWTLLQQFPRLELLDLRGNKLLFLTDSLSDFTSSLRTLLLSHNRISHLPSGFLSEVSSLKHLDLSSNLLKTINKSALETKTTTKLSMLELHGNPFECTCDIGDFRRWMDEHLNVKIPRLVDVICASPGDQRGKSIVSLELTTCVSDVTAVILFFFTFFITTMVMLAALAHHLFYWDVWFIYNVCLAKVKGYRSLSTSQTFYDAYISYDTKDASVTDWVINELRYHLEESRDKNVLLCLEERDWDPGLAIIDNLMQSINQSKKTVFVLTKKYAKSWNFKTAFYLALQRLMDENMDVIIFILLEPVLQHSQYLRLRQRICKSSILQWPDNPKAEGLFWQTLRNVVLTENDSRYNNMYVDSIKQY
In short: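 Compounds were added to HEK-Blue TLR8 reporter cells, pre-incubated 16-18 h, then treated 18 h at 37° C, 5% CO2. SEAP output was measured with Quanti-Blue (30 min) at OD 620 nm. Some values are averages of multiple measurements.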

human TLR7 (hTLR7) = biological target: T2, human TLR7 (hTLR7) (Homo sapiens, UniProt Q9NYK1); assay: Human TLR7 agonist activity assay (HEK-Blue TLR7 SEAP reporter); assay type: cell-based; conditions: HEK-Blue TLR7 cells, 18 h incubation, Quanti-Blue, OD 620 nm, some values average of multiple measurements
T2 construct: host or cells: HEK-Blue TLR7 cells (engineered human embryonic kidney cells)
T2 sequence (Q9NYK1 27-1049): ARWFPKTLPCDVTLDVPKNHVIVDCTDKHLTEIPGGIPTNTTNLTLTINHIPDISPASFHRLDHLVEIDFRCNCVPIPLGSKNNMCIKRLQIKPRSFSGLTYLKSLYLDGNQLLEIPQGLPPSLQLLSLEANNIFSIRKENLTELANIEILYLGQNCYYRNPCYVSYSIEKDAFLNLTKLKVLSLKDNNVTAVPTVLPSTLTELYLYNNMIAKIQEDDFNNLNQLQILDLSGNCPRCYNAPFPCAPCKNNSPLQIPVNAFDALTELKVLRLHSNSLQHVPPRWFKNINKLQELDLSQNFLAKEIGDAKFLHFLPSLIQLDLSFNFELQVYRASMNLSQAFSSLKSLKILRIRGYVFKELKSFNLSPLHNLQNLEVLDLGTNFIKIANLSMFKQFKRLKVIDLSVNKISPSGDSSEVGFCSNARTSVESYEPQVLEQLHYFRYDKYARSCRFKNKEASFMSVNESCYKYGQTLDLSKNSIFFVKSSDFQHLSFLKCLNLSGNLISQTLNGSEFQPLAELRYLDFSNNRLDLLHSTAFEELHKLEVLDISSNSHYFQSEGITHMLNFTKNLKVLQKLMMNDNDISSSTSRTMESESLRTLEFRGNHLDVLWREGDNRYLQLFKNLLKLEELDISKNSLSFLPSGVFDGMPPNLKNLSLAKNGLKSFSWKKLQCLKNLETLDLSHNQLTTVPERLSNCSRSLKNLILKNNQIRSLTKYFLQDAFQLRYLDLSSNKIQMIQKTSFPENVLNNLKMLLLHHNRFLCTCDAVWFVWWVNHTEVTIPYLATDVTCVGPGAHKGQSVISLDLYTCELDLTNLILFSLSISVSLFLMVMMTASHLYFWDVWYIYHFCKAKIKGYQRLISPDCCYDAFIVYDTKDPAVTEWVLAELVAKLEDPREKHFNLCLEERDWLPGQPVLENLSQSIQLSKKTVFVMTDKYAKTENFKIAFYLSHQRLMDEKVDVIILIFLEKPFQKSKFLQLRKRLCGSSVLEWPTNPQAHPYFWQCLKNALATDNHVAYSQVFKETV
In short: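 HEK-Blue TLR7 cells seeded 16-18 h, then exposed to compound for 18 h at 37 °C, 5% CO2. Secreted SEAP read with Quanti-Blue at OD 620 nm after 30 min. EC50 taken as concentration giving half-maximal response between baseline and maximum; some values averaged over repeats.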

Structure (SMILES)	EC50 (human TLR8 (hTLR8)) [µM]	EC50 (human TLR7 (hTLR7)) [µM]
CCCCN(CCO)c1nc(N)nc2cn(Cc3c(F)cc(CNC4CCOCC4)cc3OC)nc12 [Compound 74]	1.28	0.741
CCCCN(CCO)c1nc(N)nc2cn(Cc3ccc(CNC(C)(C)C)cc3C(F)F)nc12 [Compound 128]	0.628	1.19
CCCCN(CCO)c1nc(N)nc2cn(Cc3ccc(CNC4CCC4)cc3C(F)F)nc12 [Compound 98]	1.15	1.56
CCCCN(c1nc(N)nc2cn(Cc3c(F)cc(C4CCN(C5CC6(COC6)C5)CC4)cc3OC)nc12)C(C)CO (stereo not shown) [Compound 179]	0.213	0.121
CCCCNCc1ccc(Cn2cc3nc(N)nc(N(CCO)CCCC)c3n2)c(OC)c1 [Compound 12]	0.477	0.661
CCCCN(CCO)c1nc(N)nc2cn(Cc3c(F)cc(CNCCOC)cc3F)nc12 [Compound 114]	1.83	1.06
CCCCN(CCO)c1nc(N)nc2cn(Cc3ccc(CN[C@H]4CC[C@H](CO)CC4)cc3C(F)F)nc12 [Compound 131]	3.33	1.28
CCCCN(CCO)c1nc(N)nc2cn(Cc3c(F)cc(C4CCNCC4)cc3OC)nc12 [Compound 16]	2.5	0.749
CCCCN(CCO)c1nc(N)nc2cn(Cc3cccc4c3OCCN4C(=O)CNC3CCC3)nc12 [Compound 134]	1.86	2.24
CCCCN(CCO)c1nc(N)nc2cn(Cc3cc(OC)c(C4CCN(CC(C)(C)O)CC4)cc3OC)nc12 [Compound 107]	3.03	1.28
CCCCN(CCO)c1nc(N)nc2cn(Cc3c(F)cc(C4CCN(C)CC4)cc3OC)nc12 [Compound 47]	0.538	0.186
CCCCN(c1nc(N)nc2cn(Cc3ccc(CN4CCCCC4)cc3OC)nc12)C(C)CO (racemic) [Compound 49, 2-((5-amino-2-(2-methoxy-4-(piperidin-1-ylmethyl)benzyl)-2H-pyrazolo[4,3-d]pyrimidin-7-yl)(butyl)amino)propan-1-ol]	0.682	0.385
CCCCN(CCO)c1nc(N)nc2cn(Cc3c(F)cc(C4=CCNCC4)cc3OC)nc12 [Compound 15]	2.51	0.688
CCCCN(CCO)c1nc(N)nc2cn(Cc3c(F)cc(C4CCC(N(C)CCOC)CC4)cc3OC)nc12 (stereo not shown) [Compound 199]	1.62	0.274
CCCCN(CCO)c1nc(N)nc2cn(Cc3c(F)cc(C4CCN(C5CCOCC5)CC4)cc3OC)nc12 [Compound 37, 2-((5-amino-2-(2-fluoro-6-methoxy-4-(1-(tetrahydro-2H-pyran-4-yl)piperidin-4-yl)benzyl)-2H-pyrazolo[4,3-d]pyrimidin-7-yl)(butyl)amino)ethan-1-ol]	0.516	0.176
CCCCN(CCO)c1nc(N)nc2cn(Cc3ccc(CN[C@@H]4COC[C@@H]4F)cc3OC)nc12 [Compound 54]	1.5	1.33
CCCCN(CCO)c1nc(N)nc2cn(Cc3ccc(CNC4CCS(=O)(=O)CC4)c4scnc34)nc12 [Compound 213]	0.677	0.396
CCCCN(CCO)c1nc(N)nc2cn(Cc3ccc(CNC4(C)CC4)cc3OC)nc12 [Compound 89]	0.961	1.55
CCCCN(CCO)c1nc(N)nc2cn(Cc3c(F)cc(CNCCOC)cc3OC)nc12 [Compound 73]	0.593	0.32
CCCCN(CCO)c1nc(N)nc2cn(Cc3ccc(CN4CC(CCO)C4)c4cccnc34)nc12 [Compound 62]	0.675	1.31

Reference: patent US20250282776A1, “Bicyclic TLR7 Agonists and Uses Thereof” (Bristol-Myers Squibb Company, priority 2024, published 2025)
